Data as given in ChEMBL document CHEMBL1149999, “Synthesis and pharmacological activity of a macrocyclic benzamide” (Bioorg Med Chem Lett, 1995).

Experiments:
Type in all cases: tissue-based
[1] = molecular target: T1, Serotonin 3 (5-HT3) receptor (Rattus norvegicus, UniProt P35563+Q9JJ16); assay: Binding affinity against 5-hydroxytryptamine 3 receptor using [3H]BRL-43694 as radioligand in rat posterior cortex
T1 sequence (P35563 whole entry): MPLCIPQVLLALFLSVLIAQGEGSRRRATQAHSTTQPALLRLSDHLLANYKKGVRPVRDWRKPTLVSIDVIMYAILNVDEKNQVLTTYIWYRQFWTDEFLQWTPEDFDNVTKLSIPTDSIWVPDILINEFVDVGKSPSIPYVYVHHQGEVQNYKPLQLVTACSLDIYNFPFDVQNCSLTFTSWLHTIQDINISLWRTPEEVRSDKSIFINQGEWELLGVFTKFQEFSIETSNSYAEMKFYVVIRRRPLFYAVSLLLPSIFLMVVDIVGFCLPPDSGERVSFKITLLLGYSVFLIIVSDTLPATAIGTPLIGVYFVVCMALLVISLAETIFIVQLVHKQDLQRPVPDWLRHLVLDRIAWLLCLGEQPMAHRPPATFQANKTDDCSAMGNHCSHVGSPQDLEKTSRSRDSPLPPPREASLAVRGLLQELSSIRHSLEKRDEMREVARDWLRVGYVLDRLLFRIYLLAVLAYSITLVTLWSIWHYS
T1 sequence (Q9JJ16 whole entry): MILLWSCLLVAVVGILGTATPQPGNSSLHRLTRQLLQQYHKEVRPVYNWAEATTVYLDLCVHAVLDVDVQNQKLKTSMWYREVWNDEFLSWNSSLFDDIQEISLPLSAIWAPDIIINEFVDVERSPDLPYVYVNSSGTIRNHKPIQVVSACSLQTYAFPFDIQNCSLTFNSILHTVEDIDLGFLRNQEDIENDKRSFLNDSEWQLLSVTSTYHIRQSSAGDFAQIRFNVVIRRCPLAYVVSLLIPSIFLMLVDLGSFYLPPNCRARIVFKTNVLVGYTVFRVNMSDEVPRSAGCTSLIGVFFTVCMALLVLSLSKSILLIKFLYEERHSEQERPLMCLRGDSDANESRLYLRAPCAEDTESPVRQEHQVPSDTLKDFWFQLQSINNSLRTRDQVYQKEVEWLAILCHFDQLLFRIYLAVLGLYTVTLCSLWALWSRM

D(2) dopamine receptor = D(2) dopamine receptor (Rattus norvegicus, UniProt P61169); assay: Binding affinity against Dopamine receptor D2 using [3H]spiperone as radioligand in rat striatum
[2] = molecular target: 5-hydroxytryptamine receptor 4 (Rattus norvegicus, UniProt Q62758); assay: Binding affinity against 5-hydroxytryptamine 4 receptor using [3H]GR-113808 as radioligand in rat striatum
5-hydroxytryptamine receptor 4, sequence (Q62758 whole entry): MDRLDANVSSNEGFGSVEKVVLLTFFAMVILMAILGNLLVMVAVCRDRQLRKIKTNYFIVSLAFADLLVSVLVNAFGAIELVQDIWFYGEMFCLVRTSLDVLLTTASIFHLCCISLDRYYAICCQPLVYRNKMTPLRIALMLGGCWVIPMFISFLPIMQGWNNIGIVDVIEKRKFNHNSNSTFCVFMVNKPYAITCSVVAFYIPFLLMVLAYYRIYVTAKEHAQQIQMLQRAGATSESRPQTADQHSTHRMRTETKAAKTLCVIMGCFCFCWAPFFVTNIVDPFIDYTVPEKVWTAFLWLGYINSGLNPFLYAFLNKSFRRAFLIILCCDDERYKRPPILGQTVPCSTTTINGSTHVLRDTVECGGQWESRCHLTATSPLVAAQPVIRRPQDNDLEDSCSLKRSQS

D(2) dopamine receptor, sequence (P61169 whole entry): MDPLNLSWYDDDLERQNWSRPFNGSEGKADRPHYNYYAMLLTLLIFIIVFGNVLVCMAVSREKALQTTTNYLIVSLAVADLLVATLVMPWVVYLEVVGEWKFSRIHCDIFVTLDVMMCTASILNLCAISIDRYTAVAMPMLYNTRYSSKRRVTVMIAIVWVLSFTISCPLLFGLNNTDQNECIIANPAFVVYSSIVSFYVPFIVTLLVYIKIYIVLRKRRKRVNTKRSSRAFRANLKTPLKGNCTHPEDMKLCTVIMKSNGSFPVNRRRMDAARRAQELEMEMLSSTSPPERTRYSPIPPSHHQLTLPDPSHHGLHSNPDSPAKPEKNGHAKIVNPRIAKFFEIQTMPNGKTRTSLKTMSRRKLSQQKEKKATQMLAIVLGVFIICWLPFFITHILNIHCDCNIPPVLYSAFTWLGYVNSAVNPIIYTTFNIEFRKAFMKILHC

SMILES | Ki [1] [nM] | Ki (D(2) dopamine receptor) [nM] | Ki [2] [nM]
Nc1cc2c(cc1Cl)C(=O)NC1CCN(CCOCCO2)CC1 | 53.2 | > 1000 | 29.7
COc1cc(N)c(Cl)cc1C(=O)NC1CC2CCC(C1)N2Cc1ccccc1 (centres undefined) | > 1000 | 0.28 | 233
COc1cc(N)c(Cl)cc1C(=O)NC1CCN(C)CC1 | 267 | > 1000 | 832
COc1cc(N)c(Cl)cc1C(=O)N[C@@H]1CN2CCC1CC2 | – | > 1000 | 383
COc1cc(N)c(Cl)cc1C(=O)NC1CC2CCC(C1)N2C (stereo in doubt) | 0.8 | > 1000 | 48
COc1cc(N)c(Cl)cc1C(=O)NC1CC2CCC(C1)N2C (stereo in doubt; 5) | 41.8 | > 1000 | > 1000
COc1cc(N)c(Cl)cc1C(=O)NC1CCN(Cc2ccccc2)CC1 [CLEBOPRIDE] | > 1000 | – | 104
